# Measurements published in patent US12668599B2, “Heterobifunctional compounds and methods of treating disease” (Halda Therapeutics OpCo, Inc., priority 2023, dated 2026).
# Key:
# [1] = test system: VCaP cells; assay: Cellular growth inhibition assay for VCaP cells (CellTiter-Glo 2.0, 72 hours); format: cell-based, human; details: for GI50: CellTiter-Glo 2.0
# [2] = test system: T-Rex 293 cell line SC3 cells having increased expression of androgen receptor protein due to exposure to doxycycline; assay: Cellular growth inhibition, T-Rex 293 SC3 cells with doxycycline-induced androgen receptor (CellTiter-Glo 2.0, 72 hours); format: cell-based; details: for GI50: T-Rex 293 SC3 cells with 10 ng/ml doxycycline (increased androgen receptor expression), 72 hours, CellTiter-Glo 2.0
# [3] = test system: T-Rex 293 cell line SC3 cells lacking increased expression of androgen receptor protein; assay: Cellular growth inhibition, T-Rex 293 SC3 cells without doxycycline (CellTiter-Glo 2.0, 72 hours); format: cell-based; details: T-Rex 293 SC3 cells not exposed to doxycycline (no increased androgen receptor expression)
Structure (SMILES),"GI50 ([1]; Homo sapiens, VCaP, 72 h) [µM]",GI50 [2] [µM],GI50 ([3]; 72 h) [µM],GI50 ([1]; 72 hours) [µM],GI50 [3] [µM],Ratio of GI50's ([1]; GI50 of the top compound in the pair divided by GI50 of the lower compound),"Ratio of GI50's ([2]; GI50 of the top compound in the pair divided by GI50 of the lower compound, T-Rex 293 SC3 cells with doxycycline-induced androgen receptor)"
"COc1cc(O[C@H]2CC[C@H](NC(=O)c3ccc(N4CCC5(CCN(c6ccc(C7=N[C@@H](C)c8nnc(C)n8-c8sc(C)c(C)c87)cc6C(C)C)CC5)C4)nn3)CC2)ccc1C#N [Compound I-105, N-[4-(4-cyano-3-methoxy-phenoxy)cyclohexyl]-6-[8-[2-isopropyl-4-[(9S)-4,5,9,13-tetramethyl-3-thia1,8,11,12-tetrazatricyclo[8.3.0.0^2,6]trideca-2 (6),4,7,10,12-pentaen-7-yl]phenyl]-2,8-diazaspiro[4.5]decan-2-yl]pyridazine-3-carboxamide]",0.5 to 1.5,< 0.5,> 3,,,,
"COc1cc(O[C@H]2CC[C@H](NC(=O)c3ccc(N4C[C@H]5CN(c6ccc(C7=N[C@@H](Cc8ncco8)c8nnc(C)n8-c8sc(C)c(C)c87)cc6)C[C@H]5C4)nn3)CC2)ccc1C#N [Compound I-106, 6-[(3aR,6aS)-2-[4-[(9S)-4,5,13-trimethyl-9-(oxazol-2-ylmethyl)-3-thia-1,8,11,12-tetrazatricyclo[8.3.0.0^2,6]trideca-2 (6),4,7,10,12-pentaen-7-yl]phenyl]-1,3,3a,4,6,6a-hexahydropyrrolo[3,4-c]pyrrol-5-yl]-N-[4-(4-cyano-3-methoxy-phenoxy)cyclohexyl]pyridazine-3-carboxamide]",< 0.5,< 0.5,< 0.5,,,,
"COc1cc(O[C@H]2CC[C@H](NC(=O)c3ccc(N4CC(F)(F)C5(CCN(c6ccc(C7=N[C@@H](C)c8nnc(C)n8-c8sc(C)c(C)c87)cc6)CC5)C4)nn3)CC2)ccc1C#N [Compound I-107, N-[4-(4-cyano-3-methoxy-phenoxy)cyclohexyl]-6-[4,4-difluoro-8-[4-[(9S)-4,5,9,13-tetramethyl-3-thia-1,8,11,12-tetrazatricyclo[8.3.0.0^2,6]trideca-2 (6),4,7,10,12-pentaen-7-yl]phenyl]-2,8-diazaspiro[4.5]decan-2-yl]pyridazine-3-carboxamide]",< 0.5,< 0.5,< 0.5,,,,
COc1cc(O[C@H]2CC[C@H](NC(=O)c3ccc(-n4cc5c(c4)CN(c4ccc(C6=N[C@@H](C)c7nnc(C)n7-c7sc(C)c(C)c76)cc4)C5)nn3)CC2)ccc1C#N [Compound I-108],< 0.5,< 0.5,< 0.5,,,,
COc1cc(O[C@H]2CC[C@H](NC(=O)c3ccc(N4CC5(CC(C#Cc6ccc(C7=NC(Cc8ncco8)c8nnc(C)n8-c8sc(C)c(C)c87)c(F)c6)C5)C4)nn3)CC2)ccc1C#N (some centres unmarked) [Compound I-112],< 0.5,< 0.5,> 3,,,,
COc1cc(O[C@H]2CC[C@H](NC(=O)c3ccc(N4CCC5(CCN(c6ccc(C7=N[C@@H](C)c8nnc(C)n8-c8sc(C)c(C)c87)cc6)CC5(F)F)C4)nn3)CC2)ccc1C#N (some centres unmarked) [Compound I-113],< 0.5,< 0.5,< 0.5,,,,
COc1cc(O[C@H]2CC[C@H](NC(=O)c3ccc(N4CC5(CCC5)C5(CCN(c6ccc(C7=N[C@@H](C)c8nnc(C)n8-c8sc(C)c(C)c87)cc6)CC5)C4)nn3)CC2)ccc1C#N [Compound I-114],< 0.5,< 0.5,< 0.5,,,,
COc1cc(O[C@H]2CC[C@H](NC(=O)c3ccc(N4CCC5(CCN(c6ccc(C7=N[C@@H](C)c8nnc(C)n8-c8sc(C)c(C)c87)cc6)CC5(F)F)C4)nn3)CC2)ccc1C#N (some centres unmarked) [Compound I-116],,< 0.5,,< 0.5,< 0.5,,
COc1cc(O[C@H]2CC[C@H](NC(=O)c3ccc(N4CC(F)(F)C5(CCN(c6ccc(C7=N[C@@H](C)c8nnc(C)n8-c8sc(C)c(C)c87)cc6)C5)C4)nn3)CC2)ccc1C#N (some centres unmarked) [Compound I-117],< 0.5,< 0.5,< 0.5,,,,
COc1cc(O[C@H]2CC[C@H](NC(=O)c3ccc(N4C[C@]5(C)CN(c6ccc(C7=N[C@@H](Cc8ncco8)c8nnc(C)n8-c8sc(C)c(C)c87)cc6)C[C@]5(C)C4)nn3)CC2)ccc1C#N [Compound I-118],< 0.5,< 0.5,< 0.5,,,,
COc1cc(O[C@H]2CC[C@H](NC(=O)c3ccc(N4C[C@]5(F)CN(c6ccc(C7=N[C@@H](Cc8ncco8)c8nnc(C)n8-c8sc(C)c(C)c87)cc6)C[C@]5(F)C4)nn3)CC2)ccc1C#N [Compound I-119],< 0.5,< 0.5,< 0.5,,,,
COc1cc(O[C@H]2CC[C@H](NC(=O)c3ccc(N4CC(C)(C)C5(CCN(c6ccc(C7=N[C@@H](C)c8nnc(C)n8-c8sc(C)c(C)c87)cc6)CC5)C4)nn3)CC2)ccc1C#N [Compound I-120],< 0.5,< 0.5,< 0.5,,,,
COc1cc(O[C@H]2CC[C@H](NC(=O)c3ccc(N4CCC5(CCC(c6ccc(C7=N[C@@H](C)c8nnc(C)n8-c8sc(C)c(C)c87)cc6C(C)C)CC5)C4)nn3)CC2)ccc1C#N (some centres unmarked) [Compound I-121],< 0.5,< 0.5,> 3,,,,
COc1cc(O[C@H]2CC[C@H](NC(=O)c3ccc(N4CCC5(CCC(c6ccc(C7=N[C@@H](C)c8nnc(C)n8-c8sc(C)c(C)c87)cc6C(C)C)CC5)C4)nn3)CC2)ccc1C#N (some centres unmarked) [Compound I-122],,< 0.5,,0.5 to 1.5,1.5 to 3,,
"COc1cc(O[C@H]2CC[C@H](NC(=O)c3ccc(N4CC5(CC(C#Cc6ccc(C7=N[C@@H](Cc8ncco8)c8nnc(C)n8-c8sc(C)c(C)c87)cc6)C5)C4)nn3)CC2)ccc1C#N [Compound I-124, N-[(1r,4r)-4-(4-cyano-3-methoxy-phenoxy)cyclohexyl]-6-[6-[2-[4-[(9S)-4,5,13-trimethyl-9-(oxazol-2-ylmethyl)-3-thia-1,8,11,12-tetrazatricyclo[8.3.0.0^2,6]trideca-2 (6),4,7,10,12-pentaen-7-yl]phenyl]ethynyl]-2-azaspiro[3.3]heptan-2-yl]pyridazine-3-carboxamide]",< 0.5,< 0.5,< 0.5,,,1,1
"COc1cc(O[C@H]2CC[C@H](NC(=O)c3ccc(N4CCC5(CC4)CC(Cc4ccc(C6=N[C@@H](Cc7ncco7)c7nnc(C)n7-c7sc(C)c(C)c76)c(F)c4)C5)nn3)CC2)ccc1C#N [Compound I-125, N-[4-(4-cyano-3-methoxy-phenoxy)cyclohexyl]-6-[2-[[3-fluoro-4-[(9S)-4,5,13-trimethyl-9-(oxazol-2-ylmethyl)-3-thia-1,8,11,12-tetrazatricyclo[8.3.0.0^2,6]trideca-2 (6),4,7,10,12-pentaen-7-yl]phenyl]methyl]-7-azaspiro[3.5]nonan-7-yl]pyridazine-3-carboxamide]",< 0.5,< 0.5,< 0.5,,,,
COc1cc(O[C@H]2CC[C@H](NC(=O)c3ccc(N4CCC5(CCN(c6ccc(C7=NC(Cc8ncco8)c8nnc(C)n8-c8sc(C)c(C)c87)cc6C(F)(F)F)CC5)C4)nn3)CC2)ccc1C#N (some centres unmarked) [Compound I-126],,< 0.5,,> 3,> 3,,
